How the values were obtained:
Format in all cases: in vivo, human
[1] = system: adult subjects with relapsing MS; experiment: Combined unique active lesions (CUAL) on brain MRI from baseline to Week 108
Experimental: (§1) Secondary efficacy variables and testing strategy: Four secondary efficacy endpoints were analyzed as per the statistical testing strategy outlined in FIG. 1. • Change from baseline to Week 108 in fatigue-related symptoms as measured by the symptoms domain of the FSIQ-RMS patient-reported outcome [Fatigue] • Cumulative number of combined unique active lesions from baseline to Week 108 on brain MRI [CUALs] • Time to first 12-week confirmed disability accumulation (CDA) from baseline to EOS on Expanded Disability Status Scale (EDSS) [12-week CDA] • Time to first 24-week CDA from baseline to EOS on EDSS [24-week CDA]
CUAL are new Gd+T1 lesions plus new or enlarging T2 lesions (without double-counting of lesions).
MRI scans were performed at Visits 2 (Baseline), 10 (Week 60), and 14 (EOT) and at any unscheduled visit (U1, U2, etc.). If applicable, MRI scans also were performed at the corresponding visits in the PTOP (Visits 10A and 14A). Testing at all visits were performed up to 7 days prior to or after the visit date.
MRI variables included the number and volume of new and total Gd+ lesions on T1-weighted MRI scans, number of new and enlarging lesions and lesion volume on T2-weighted MRI, and global measures of loss of brain tissue.
T1-weighted imaging before and after i.v. administration of 0.1 mmol/kg body weight (=0.2 mL/kg) of Gd as well as PD-T2-weighted imaging was performed. […]

[2] = system: adult subjects with relapsing MS; experiment: Time to first 24-week confirmed disability accumulation (CDA) on EDSS
Experimental: as §1
(§2) A 24-week CDA is an increase of at least 1.5 in EDSS for subjects with a baseline EDSS score of 0.0 or an increase of at least 1.0 in EDSS for subjects with a baseline EDSS score of 1.0 to 5.0, or an increase of at least 0.5 in EDSS for subjects with a baseline EDSS score ≥5.5 which is to be confirmed after 24 weeks.
(§3) Baseline EDSS is defined as the last EDSS score recorded prior to randomization. The initial EDSS increase, meeting the above criteria, is defined as the onset of disability accumulation.
(§4) All EDSS measurements (with or without relapse, at a scheduled or unscheduled visit) were used to determine the onset of disability accumulation. […]

[3] = system: adult subjects with relapsing MS; experiment: Time to first 12-week confirmed disability accumulation (CDA) on EDSS
Experimental: as §1
as §2, with “12-week” for “24-week”, “12” for “24”
as §3, §4

[4] = ponesimod 20 mg vs teriflunomide 14 mg, stratified Cox regression
[5] = ponesimod 20 mg, not statistically significant

Question: How did the “Reduction of the number of CUALs between baseline and week 108 compared to teriflunomide 14 mg” value ([1]; ponesimod 20 mg) turn out when CCC/N=C1\S/C(=C\c2ccc(OC[C@H](O)CO)c(Cl)c2)C(=O)N1c1ccccc1C [Ponesimod, (R)-5-[3-chloro-4-(2,3-dihydroxy-propoxy)-benz[Z]ylidene]-2-([Z]-propylimino)-3-o-tolyl-thiazolidin-4-one] was run?
Answer: 56%

Question: What about the “CUAL treatment effect (Rate Ratio)” value ([1]; ponesimod 20 mg vs teriflunomide 14 mg, baseline to Week 108) of the same compound?
Answer: 0.44

Question: What about the “Time to first 24-week CDA, hazard ratio” value [2, 4] of the same compound?
Answer: 0.84

Question: What about the “Reduction of the risk of 24-week CDA compared to teriflunomide 14 mg” value [2, 5] of the same compound?
Answer: 16%

Question: And the “Time to first 12-week CDA, hazard ratio” value [3, 4]?
Answer: 0.83

Question: What about the “Reduction of the risk of 12-week CDA compared to teriflunomide 14 mg” value [3, 5] of the same compound?
Answer: 17%
